Key:
CDK-b1 = experiment: Northern expression analysis after aphidicolin synchronisation of MM1 (maximum signal = 100%); assay type: cell-based, Arabidopsis thaliana
Description: (§1) was analysed following the expression level of known cell cycle regulated genes. Synchronisation was performed as described in Example 2A, with the exception that two 7-day old cultures of the weekly sub-cultured cell suspension (210 ml each) were combined. 40 ml of combined culture was transferred into 200 ml of fresh MSS-medium in each of 10 separate flasks. After incubation for 24 hrs under conditions as described in Example 1, in the presence of 4.16 μg/ml aphidicolin, cells from 5 pooled flasks were washed through a nylon net (mesh size 47 μm) and washed with 2 litre MSS medium and shaken vigorously to remove the aphidicolin. Cells were transferred into a 50 ml plastic tube, washed again with MSS medium and centrifuged at 2500 rpm for 1 min (1075 rcf). Cells were resuspended and combined with the cells from the other 5 flasks similarly washed in a total volume of 300 ml fresh MSS-medium. 30 ml of this cell suspension was then added to 200 ml fresh MSS-medium in each of 10 separate flasks.
(§2) 1) 25 ml for Northern blot (transferred into 50 ml plastic tube, centrifuged at 2500 rpm for 1 min, the supernatant discarded, and the cell pellet shock-frozen in liquid nitrogen before storing in −80° C. freezer)
(§3) Samples were collected at the time point indicated (time of removal of aphidicolin equals time point 0 hrs) and were analysed for expression of the following genes by Northern blot:
CDK-b1 (also called Cdc2b/CDK2b: Accession no. ATCDC2BP)
(§4) For each probe the maximum hybridisation signal obtained was defined as 100%.

cell cycle = conditions: phase of the cell cycle at which cells are arrested; cited from earlier work
alfalfa-cell suspension = conditions: blocked with aphidicolin for 36 h and released; cited from earlier work
[1] = system: Transgenic MM1-cycD2 cell lines; experiment: Aphidicolin block/release of transgenic MM1-cycD2 cell lines; assay type: cell-based, Arabidopsis thaliana; conditions: compared with non transgenic MM1 cell lines
Description: To re-establish liquid cultures of putative transgenic MM1-calli, callus tissue was transferred to a 55 mm petridish, carefully squeezed with a pipet tip and resuspended in 10 ml fresh MSS-medium (0.5 mg/l NM, 0.05 mg/l kinetin, 100 μg/ml kanamycin). The callus derived cell suspensions were incubated at 120 rpm, 23° C. under continuous light conditions in 100 ml Erlenmeyer flasks. After 10 days cultivation, 10 ml MSS-medium (0.5 mg/l NM, 0.05 mg/l kinetin) was added to the suspension cultures and left for further 7 days under conditions as above. 5 ml putative transgenic cell suspension was subcultured into 50 ml fresh MSS-medium (0.5 mg/l NM, 0.05 mg/l kinetin, 100 μg/ml kanamycin). This subculturing procedure was repeated twice at 7 days intervals in the same medium. Subsequent subculturing was carried out weekly into fresh MSS-medium (0.5 mg/l NAA, 0.05 mg/l kinetin without kanamycin selection), adjusting the transferred volume of cells to produce an inoculum of approximately the same as WT-MM1 culture. In the example of putative transgenic MM1-cycD2 cell suspensions, these were maintained by subculturing weekly 3.5 ml into 100 ml fresh MSS-medium (0.5 mg/l NAA, 0.05 mg/l kinetin) in 300 ml Erlenmeyer flasks. […] Putative transgenic calli or the suspension cultures thereof were analyzed using PCR and appropriate primers allowing to detect the cycD2 coding region. […]

histone H4 = experiment: Northern expression analysis after aphidicolin synchronisation of MM1 (maximum signal = 100%); assay type: cell-based, Arabidopsis thaliana
Description: as §1, §2, §3
histone H4 (ID/Accession no. ATH4 GB/M17133)
as §4

[2] = 0 hrs after aphidicolin removal
[3] = 2 hrs after aphidicolin removal
[4] = 4 hrs after aphidicolin removal
[5] = 6 hrs after aphidicolin removal
[6] = 8 hrs after aphidicolin removal
[7] = 10 hrs after aphidicolin removal
[8] = 12 hrs after aphidicolin removal
[9] = 14 hrs after aphidicolin removal
[10] = 16 hrs after aphidicolin removal
[11] = 18 hrs after aphidicolin removal
[12] = 20 hrs after aphidicolin removal
[13] = 22 hrs after aphidicolin removal
[14] = 24 hrs after aphidicolin removal
[15] = 26 hrs after aphidicolin removal
[16] = 28 hrs after aphidicolin removal
[17] = 30 hrs after aphidicolin removal

For `C[C@@]1(CO)[C@H](O)CC[C@@]2(C)[C@H]1CC[C@H]1C[C@@H]3C[C@@]12CC[C@]3(O)CO` [aphidicolin], the CDK-b1 % (CDK-b1; [2]) was 34.26%, the “CDK-b1 Band intensity” value (CDK-b1; [2]) was 500 and the CDK-b1 % (CDK-b1; [3]) was 57.86%. For the same compound, the “CDK-b1 Band intensity” value (CDK-b1; [3]) was 844, the CDK-b1 % (CDK-b1; [4]) was 69.78% and the “CDK-b1 Band intensity” value (CDK-b1; [4]) was 1018. The CDK-b1 % (CDK-b1; [5]) was 74.34%, the “CDK-b1 Band intensity” value (CDK-b1; [5]) was 1085 and the CDK-b1 % (CDK-b1; [6]) was 79.46%. For the same compound, the “CDK-b1 Band intensity” value (CDK-b1; [6]) was 1160, the CDK-b1 % (CDK-b1; [7]) was 96.41% and the “CDK-b1 Band intensity” value (CDK-b1; [7]) was 1407. For the same compound, the CDK-b1 % (CDK-b1; [8]) was 99.31%, the “CDK-b1 Band intensity” value (CDK-b1; [8]) was 1450 and the CDK-b1 % (CDK-b1; [9]) was 100.0%. The “CDK-b1 Band intensity” value (CDK-b1; [9]) was 1459, the CDK-b1 % (CDK-b1; [10]) was 73.89% and the “CDK-b1 Band intensity” value (CDK-b1; [10]) was 1078. The CDK-b1 % (CDK-b1; [11]) was 51.49%, the “CDK-b1 Band intensity” value (CDK-b1; [11]) was 751 and the CDK-b1 % (CDK-b1; [12]) was 58.87%. The “CDK-b1 Band intensity” value (CDK-b1; [12]) was 859, the CDK-b1 % (CDK-b1; [13]) was 42.07% and the “CDK-b1 Band intensity” value (CDK-b1; [13]) was 614. For the same compound, the CDK-b1 % (CDK-b1; [14]) was 30.65%, the “CDK-b1 Band intensity” value (CDK-b1; [14]) was 447 and the CDK-b1 % (CDK-b1; [15]) was 49.74%. For the same compound, the “CDK-b1 Band intensity” value (CDK-b1; [15]) was 726, the CDK-b1 % (CDK-b1; [16]) was 50.87% and the “CDK-b1 Band intensity” value (CDK-b1; [16]) was 742. The CDK-b1 % (CDK-b1; [17]) was 57.47%, the “CDK-b1 Band intensity” value (CDK-b1; [17]) was 839 and the cell cycle arrest (cell cycle) was “G1/early S”. The peak mitotic index (alfalfa-cell suspension) was “up to 40%”, the “synchronisation by aphidicolin block/release” value [1] was “could be synchronized in a similar way as non transgenic MM1 cell lines” and the “histone H4 %” value (histone H4; [2]) was 33.81%. For the same compound, the “histone H4 Band intensity” value (histone H4; [2]) was 1029, the “histone H4 %” value (histone H4; [3]) was 100.0% and the “histone H4 Band intensity” value (histone H4; [3]) was 3046. For the same compound, the “histone H4 %” value (histone H4; [4]) was 84.73%, the “histone H4 Band intensity” value (histone H4; [4]) was 2580 and the “histone H4 %” value (histone H4; [5]) was 58.91%. For the same compound, the “histone H4 Band intensity” value (histone H4; [5]) was 1794, the “histone H4 %” value (histone H4; [6]) was 32.42% and the “histone H4 Band intensity” value (histone H4; [6]) was 987. For the same compound, the “histone H4 %” value (histone H4; [7]) was 38.70%, the “histone H4 Band intensity” value (histone H4; [7]) was 1178 and the “histone H4 %” value (histone H4; [8]) was 28.53%. The “histone H4 Band intensity” value (histone H4; [8]) was 868, the “histone H4 %” value (histone H4; [9]) was 22.81% and the “histone H4 Band intensity” value (histone H4; [9]) was 694. The “histone H4 %” value (histone H4; [10]) was 12.75%, the “histone H4 Band intensity” value (histone H4; [10]) was 388 and the “histone H4 %” value (histone H4; [11]) was 11.26%. For the same compound, the “histone H4 Band intensity” value (histone H4; [11]) was 343, the “histone H4 %” value (histone H4; [12]) was 19.43% and the “histone H4 Band intensity” value (histone H4; [12]) was 591. For the same compound, the “histone H4 %” value (histone H4; [13]) was 17.55%, the “histone H4 Band intensity” value (histone H4; [13]) was 534 and the “histone H4 %” value (histone H4; [14]) was 17.77%. For the same compound, the “histone H4 Band intensity” value (histone H4; [14]) was 541, the “histone H4 %” value (histone H4; [15]) was 23.04% and the “histone H4 Band intensity” value (histone H4; [15]) was 701. The “histone H4 %” value (histone H4; [16]) was 14.35% and the “histone H4 Band intensity” value (histone H4; [16]) was 437.

— patent publication US20040014215A1, “Synchronised arabidopsis cell suspensions and uses thereof” (priority 2000, published 2004)
